The source made the active and inactive calls.
System: not listed separately
Test: growth suppression of beta-catenin-knockout colon cells, dose response, cell-based, HCT116, human colon tumor (AID 1045);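 note: HCT116 colon tumor cells with beta catenin knocked out; cells exposed to compound for 60 hours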
Assay type: functional
Settings: not given

SMILES	EC50
CCOc1ccc2ncc(S(=O)(=O)c3ccc(C)cc3)c(N3CCC4(CC3)OCCO4)c2c1	74 µM (active)
Cc1cccc2sc(NNC(=O)C3COc4ccccc4O3)nc12 (configuration not stated)	36.7 µM (active)
CCOc1ccc(-n2c(=O)c3c4c(sc3n(CC(=O)NCc3ccco3)c2=O)CCC4)cc1	27.7 µM (active)
CN(C)c1ccc(/C=N/c2ccc(N(C)C)cc2)cc1	524 µM (active)
CC1=C(C(=O)Nc2ccccc2C)C(c2ccc(C)o2)n2c(s/c(=C/c3ccccc3)c2=O)=N1 (configuration not stated)	442 µM (active)
Cc1cc2nc(-c3ccc(SCC(=O)N4CCc5ccccc54)nc3)[nH]c2cc1C	7.55 µM (active)
Cc1ccc(NC(=O)/C(=C\c2cccc([N+](=O)[O-])c2)NC(=O)c2cccs2)cc1	24.1 µM (active)
COc1ccccc1CN(Cc1cc2cc(C)cc(C)c2nc1O)Cc1nnnn1CC1CCCO1 (configuration not stated)	54.9 µM (active)
CCc1nn2cc(C(=O)c3cc(Cl)ccc3O)cnc2c1-c1ccc(F)cc1	28.3 µM (active)

Target: T1, Cytochrome P450 1A2 (Homo sapiens, UniProt P05177);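 note: PubChem cytochrome P450 panel assay, CYP1A2 panel member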
T1 sequence (P05177 whole entry): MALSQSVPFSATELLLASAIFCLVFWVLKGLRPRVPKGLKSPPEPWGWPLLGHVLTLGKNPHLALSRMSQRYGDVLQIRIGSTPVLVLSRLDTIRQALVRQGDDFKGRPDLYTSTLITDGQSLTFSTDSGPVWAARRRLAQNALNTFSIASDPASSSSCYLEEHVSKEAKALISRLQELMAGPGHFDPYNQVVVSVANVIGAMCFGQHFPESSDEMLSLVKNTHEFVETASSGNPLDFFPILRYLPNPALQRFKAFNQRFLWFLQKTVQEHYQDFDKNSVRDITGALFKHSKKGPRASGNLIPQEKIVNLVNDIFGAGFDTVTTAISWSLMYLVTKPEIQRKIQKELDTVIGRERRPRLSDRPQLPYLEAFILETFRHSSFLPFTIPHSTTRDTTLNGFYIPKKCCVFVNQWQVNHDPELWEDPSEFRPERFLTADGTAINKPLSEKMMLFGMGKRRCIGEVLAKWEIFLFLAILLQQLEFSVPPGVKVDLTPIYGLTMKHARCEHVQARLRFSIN
Test: not given
Settings: not given

SMILES	AC50
Cc1cc2nc(-c3ccc(SCC(=O)N4CCc5ccccc54)nc3)[nH]c2cc1C	3.16 µM (inconclusive)
COc1ccccc1CN(Cc1cc2cc(C)cc(C)c2nc1O)Cc1nnnn1CC1CCCO1 (configuration not stated)	20 µM (inconclusive)

Target: Cytochrome P450 2C9 (Homo sapiens, UniProt P11712)
Sequence (P11712 whole entry): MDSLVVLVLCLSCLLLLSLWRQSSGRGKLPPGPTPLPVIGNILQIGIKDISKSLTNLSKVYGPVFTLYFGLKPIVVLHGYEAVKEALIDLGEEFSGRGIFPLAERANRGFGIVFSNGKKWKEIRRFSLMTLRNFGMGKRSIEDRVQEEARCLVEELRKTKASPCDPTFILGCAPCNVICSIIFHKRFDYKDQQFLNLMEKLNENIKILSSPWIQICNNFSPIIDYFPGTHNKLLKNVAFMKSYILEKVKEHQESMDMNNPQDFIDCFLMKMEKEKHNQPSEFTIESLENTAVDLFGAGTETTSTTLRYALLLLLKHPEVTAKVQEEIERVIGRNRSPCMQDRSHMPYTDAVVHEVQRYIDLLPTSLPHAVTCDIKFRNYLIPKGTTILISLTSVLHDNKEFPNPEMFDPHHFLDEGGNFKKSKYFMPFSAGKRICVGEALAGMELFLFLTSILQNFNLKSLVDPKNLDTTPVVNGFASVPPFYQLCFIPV
Test: not given
Settings: not given

SMILES	AC50
Cc1ccc(NC(=O)/C(=C\c2cccc([N+](=O)[O-])c2)NC(=O)c2cccs2)cc1	39.8 µM (inconclusive)
COc1ccccc1CN(Cc1cc2cc(C)cc(C)c2nc1O)Cc1nnnn1CC1CCCO1 (configuration not stated)	14.1 µM (inconclusive)

System: not listed separately
Test: growth suppression of PTEN-null colon cells, dose response, cell-based, HCT116 PTEN knockout (AID 1047);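 note: HCT116 colon tumor cells with PTEN knocked out; cells exposed to compound for 60 hours before readout; potency for loss of cell viability measured by luminescence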
Assay type: functional
Settings: not given

SMILES	EC50
COc1ccc(N2C(=O)/C(=C\NNS(=O)(=O)c3ccc(C)cc3)c3ccccc3C2=O)cc1OC	40.4 µM (active)
CCOc1ccc2ncc(S(=O)(=O)c3ccc(C)cc3)c(N3CCC4(CC3)OCCO4)c2c1	40.5 µM (active)
Cc1cccc2sc(NNC(=O)C3COc4ccccc4O3)nc12 (configuration not stated)	38.9 µM (active)
CCOc1ccc(-n2c(=O)c3c4c(sc3n(CC(=O)NCc3ccco3)c2=O)CCC4)cc1	30.2 µM (active)
CN(C)c1ccc(/C=N/c2ccc(N(C)C)cc2)cc1	28.5 µM (active)
CC1=C(C(=O)Nc2ccccc2C)C(c2ccc(C)o2)n2c(s/c(=C/c3ccccc3)c2=O)=N1 (configuration not stated)	347 µM (active)
Cc1cc2nc(-c3ccc(SCC(=O)N4CCc5ccccc54)nc3)[nH]c2cc1C	6.92 µM (active)
Cc1ccc(NC(=O)/C(=C\c2cccc([N+](=O)[O-])c2)NC(=O)c2cccs2)cc1	22.8 µM (active)
COc1ccccc1CN(Cc1cc2cc(C)cc(C)c2nc1O)Cc1nnnn1CC1CCCO1 (configuration not stated)	44.9 µM (active)
CCc1nn2cc(C(=O)c3cc(Cl)ccc3O)cnc2c1-c1ccc(F)cc1	30.7 µM (active)

Target: T2, Corticotropin-releasing factor receptor 2/Corticotropin-releasing factor-binding protein (Homo sapiens, UniProt P24387+Q13324)
T2 sequence (Q13324 whole entry): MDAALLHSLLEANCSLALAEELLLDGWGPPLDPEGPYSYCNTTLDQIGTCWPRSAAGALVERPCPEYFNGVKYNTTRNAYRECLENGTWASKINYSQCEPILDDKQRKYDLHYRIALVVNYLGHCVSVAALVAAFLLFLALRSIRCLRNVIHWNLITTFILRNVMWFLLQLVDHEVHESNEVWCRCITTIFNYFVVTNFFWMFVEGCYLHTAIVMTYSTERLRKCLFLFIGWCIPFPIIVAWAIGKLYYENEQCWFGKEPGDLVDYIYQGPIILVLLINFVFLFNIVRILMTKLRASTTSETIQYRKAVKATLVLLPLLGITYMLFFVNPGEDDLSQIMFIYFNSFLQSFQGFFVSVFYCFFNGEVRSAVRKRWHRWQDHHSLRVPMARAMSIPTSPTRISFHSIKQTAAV
T2 sequence (P24387 whole entry): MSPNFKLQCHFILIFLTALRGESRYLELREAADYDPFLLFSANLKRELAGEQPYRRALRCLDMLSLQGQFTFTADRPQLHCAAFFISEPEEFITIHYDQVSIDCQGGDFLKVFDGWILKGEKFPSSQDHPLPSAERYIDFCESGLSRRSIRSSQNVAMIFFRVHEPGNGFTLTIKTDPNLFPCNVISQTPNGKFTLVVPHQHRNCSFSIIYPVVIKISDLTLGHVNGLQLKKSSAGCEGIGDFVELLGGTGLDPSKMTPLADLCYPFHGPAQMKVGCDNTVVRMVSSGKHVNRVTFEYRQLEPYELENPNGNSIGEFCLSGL
Test: activators of CRF receptor 2 with binding protein – uHTS hits, confirmation (AID 602473)
Assay type: functional
Settings: read-out: EC50_Mean

SMILES	EC50
COc1ccc(N2C(=O)/C(=C\NNS(=O)(=O)c3ccc(C)cc3)c3ccccc3C2=O)cc1OC	> 53 µM (inactive)

System: not listed separately
Test: cells
Assay type: functional
Settings: not given

SMILES	IC50
CC(C)(C)C(=O)/C=C/Nc1ccccc1O	3.27 µM (active)
O=C(OCc1c(Cl)cccc1Cl)c1ccccn1	10.6 µM (active)
Cc1ccc(/C=C2\SC(N3CCCC3)=NC2=O)cc1	5.13 µM (active)
COc1cccc(OC(=O)c2cc3ccccc3oc2=O)c1	> 50 µM (active)
O=C(CC1CCCC1)OCn1nnc2ccccc2c1=O	11.1 µM (active)
O=[N+]([O-])c1ccc(CN2CCN(c3ccccc3)CC2)o1	0.13 µM (active)
CN(C(=O)COC(=O)c1ccc([N+](=O)[O-])cc1Cl)C1CCCCC1	6.26 µM (active)
c1ccc(C2=Nc3ccccc3OC2)cc1	7.95 µM (active)
CC(C)C(=O)Nc1cccc(-c2nc3ccccc3c(=O)o2)c1	20.7 µM (active)
CCOC(=O)CN(C#N)c1nc(N(C)C)nc(N(C)C)n1	26.9 µM (active)

Target: T3, Heat shock factor protein 1 (Mus musculus, UniProt P38532)
T3 sequence (P38532 whole entry): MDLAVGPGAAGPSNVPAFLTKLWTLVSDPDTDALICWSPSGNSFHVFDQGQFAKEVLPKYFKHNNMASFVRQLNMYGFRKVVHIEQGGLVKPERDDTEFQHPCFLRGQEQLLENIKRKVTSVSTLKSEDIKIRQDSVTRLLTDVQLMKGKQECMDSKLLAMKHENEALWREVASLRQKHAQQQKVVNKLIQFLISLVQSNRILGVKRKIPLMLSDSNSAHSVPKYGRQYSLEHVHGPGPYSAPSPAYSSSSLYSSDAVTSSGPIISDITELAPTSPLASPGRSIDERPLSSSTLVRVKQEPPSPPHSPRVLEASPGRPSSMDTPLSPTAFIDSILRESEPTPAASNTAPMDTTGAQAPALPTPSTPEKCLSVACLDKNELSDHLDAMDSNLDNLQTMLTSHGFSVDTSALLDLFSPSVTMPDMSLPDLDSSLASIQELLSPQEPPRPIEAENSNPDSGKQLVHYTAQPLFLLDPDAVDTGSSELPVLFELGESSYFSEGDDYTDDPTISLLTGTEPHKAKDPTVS
Test: HSF1 potentiators in luciferase reporter cells, confirmation, cell-based, NIH3T3, luminescence, dose retest (AID 435004);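 note: stress induced by proteasome inhibitor MG132 added 30 min after compound; luciferase reporter driven by HSF1 response element in NIH3T3 cells; actives raise luminescence as potentiators of the MG132 stress response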
Assay type: functional
Settings: not given

SMILES	EC50
CCOc1ccc2ncc(S(=O)(=O)c3ccc(C)cc3)c(N3CCC4(CC3)OCCO4)c2c1	> 260 µM (inactive)

Target: Cytochrome P450 2C19 (Homo sapiens, UniProt P33261)
Sequence (P33261 whole entry): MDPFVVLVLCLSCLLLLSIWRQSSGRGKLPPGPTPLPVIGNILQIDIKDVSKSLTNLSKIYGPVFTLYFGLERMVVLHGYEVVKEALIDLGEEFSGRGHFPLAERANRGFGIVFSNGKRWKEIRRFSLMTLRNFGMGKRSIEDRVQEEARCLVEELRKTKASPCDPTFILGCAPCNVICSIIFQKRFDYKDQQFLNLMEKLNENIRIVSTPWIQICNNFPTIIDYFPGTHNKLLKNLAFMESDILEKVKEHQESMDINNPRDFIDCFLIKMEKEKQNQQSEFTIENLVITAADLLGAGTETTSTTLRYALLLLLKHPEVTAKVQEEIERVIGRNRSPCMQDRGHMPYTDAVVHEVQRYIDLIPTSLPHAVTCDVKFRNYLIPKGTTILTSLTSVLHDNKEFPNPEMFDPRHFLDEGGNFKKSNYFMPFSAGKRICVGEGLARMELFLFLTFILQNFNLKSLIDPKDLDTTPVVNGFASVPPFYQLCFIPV
Test: Cytochrome panel assay with activity outcomes. Panel member name: p450-cyp2c19 Compounds with AC50 equal or less than 10 uM are considered active
Assay type: functional
Settings: read-out: AC50

SMILES	AC50
Cc1ccc(NC(=O)/C(=C\c2cccc([N+](=O)[O-])c2)NC(=O)c2cccs2)cc1	17.8 µM (inconclusive)

Target: T3, Heat shock factor protein 1
Test: inhibition of MG132-induced HSE-luciferase signal, confirmation, cell-based, NIH3T3, luminescence, dose retest (AID 2382);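 note: NIH3T3 fibroblasts with HSF1-driven luciferase reporter stressed by proteasome inhibitor MG132; luminescence from HSF1-driven luciferase expression after 8 hours of MG132 stress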
Assay type: functional
Settings: not given

SMILES	EC50
Cc1cccc2sc(NNC(=O)C3COc4ccccc4O3)nc12 (configuration not stated)	> 195 µM (not active)
